# Data taken from patent US10781217B2, “Imidazopyridazine compound” (HANMI PHARMACEUTICAL CO., LTD., priority 2017, dated 2020).
# Tested on: SK-CO-1 cell line
# Assay: Cell growth inhibition on SK-CO-1 cell line (SRB assay)
# Type: cell-based
# Details: cultured with compound for 3 days, SRB colorimetric test
# Protocol: SK-CO-1 cell line purchased from the American Type Culture Collection (ATCC, USA) was cultured at […] with an EMEM medium (10% FBS, 1% penicillin/streptomycin) under the presence of 5% CO2. The cultured SK-CO-1 cell line was prepared in 5×10^4/100 μl, placed in a 96 well-plate, and cultured for one day. After that, the test compound was stepwise diluted in a ratio of 1/10 from 10 μM to 0.1 nM in the same EMEM medium, and then cultured for 3 days. In order to measure viability of the cell, a sulforhodamine B colorimetric (SRB, sigma Cat. S1402) test method was used. After discarding the medium, 0.1 ml of 10% trichloroacetic acid (TCA, Sigma Cat. T0699) was introduced to each well, and the cell line was fixed for 30 minutes to 1 hour, then washed with distilled water, and exposed in the air to dry the plate. After that, 100 μl of 0.4% SRB solution was introduced to each well, and the cell line was stained for 30 minutes at room temperature, and the plate was washed with distilled water and 1% acetic acid, and then dried in the air. 150 μl of […] trizma base solution was introduced to each well, and after dissolving the solid SRB therein, absorbance was measured at 540 nm using a microplate-reader. The growth inhibition value (GI50) of the cell line was calculated using a GraphPad Prism software.
substance,measurement,value
"1-(2-(((1^5Z,5Z)-2^5-fluoro-3-aza-1(3,6)-imidazo[1,2-b]pyridazina-2(4,2)pyrimidina-4(1,3)-benzenacyclohexapan-5-en-4^5-yl)oxy)ethyl)piperidin-4-ol [Example 1]",GI50,21 nM
